Format in all cases: in vivo
In experiment [1] the test system is Western plant bug (Lygus bug), Lygus hesperus (Knight). As to the kind of experiment: Treated bean piece bioassay against Western plant bug (Lygus bug), synergy by Colby's equation. To be noted: Lygus bugs. The text has this:
The method described in Colby S. R., “Calculating Synergistic and Antagonistic Responses of Herbicide Combinations,” Weeds, 1967, 15, 20-22 was used to determine an existence of synergic effect between the nAChR allosteric activator compound and the pesticide (I), (II), or any agriculturally acceptable salt thereof in the formulated pesticidal composition. In this method, the percent insect control of the formulated pesticidal composition as observed in the study was compared to the “expected” percent control (E) as calculated by equation (1) (hereinafter “Colby's equation”) below: [formula] where X is the percentage of control with the first pesticide at a given rate (p), Y is the percentage of control with the second pesticide at a given rate (q), and E is the expected control by the first and second pesticide at a rate of p+q. […] A pesticidal composition was prepared by thoroughly mixing about 0.04 weight % of compound I with about 0.00125 weight % of spinetoram. The active compounds were formulated in a 10% acetone solution with 0.025% non-ionic surfactant, TWEEN® 20. Bioassays were performed for each different active solution. Bean pieces (about one inch-long) were used for the tests. Four bean pieces were placed in each tested active solution and left there for 10 minutes. Bean pieces were taken out of the active solution, and each piece was placed in a well in a 32-well tray and allowed to air dry. Three third-instar nymphs of Western plant bug (Lygus bug), Lygus hesperus (Knight), were infested into each well. The percent control of the pesticidal composition against Lygus bug was determined as the “Observed” action, and compared to those obtained by using about 0.04 weight % of compound I, and using about 0.00125 weight % of spinetoram alone. The “Colby's Expected Action” was calculated using Colby's equation as discussed previously. A pesticidal composition was prepared by thoroughly mixing about 0.04 weight % of compound I with about 0.005 weight % of spinetoram. The bioassays were performed wherein different active compounds were tested against Western plant bug (Lygus bug), Lygus hesperus (Knight), using the procedure described in example 4A.

Experiment [2] has as its system cotton aphid, Aphis gossypii (Glover). Kind of experiment: Track-sprayed cotton plant bioassay against cotton aphid, synergy by Colby's equation. To be noted: Spinetoram alone, dose rate 0.005 weight %. The text has this:
The method described in Colby S. R., “Calculating Synergistic and Antagonistic Responses of Herbicide Combinations,” Weeds, 1967, 15, 20-22 was used to determine an existence of synergic effect between the nAChR allosteric activator compound and the pesticide (I), (II), or any agriculturally acceptable salt thereof in the formulated pesticidal composition. In this method, the percent insect control of the formulated pesticidal composition as observed in the study was compared to the “expected” percent control (E) as calculated by equation (1) (hereinafter “Colby's equation”) below: [formula] where X is the percentage of control with the first pesticide at a given rate (p), Y is the percentage of control with the second pesticide at a given rate (q), and E is the expected control by the first and second pesticide at a rate of p+q. […] The percent control of the pesticidal composition against cotton aphid, Aphis gossypii (Glover), was determined as the “Observed” action, and compared to those obtained by using about 0.0020 weight % of compound II, and using about 0.005 weight % of spinetoram alone. The “Colby's Expected Action” was calculated using Colby's equation as discussed previously.

In experiment [3] the test system is diamondback moth, Plutella xylostella. Kind of experiment: Track-sprayed cabbage plant bioassay against diamondback moth, synergy by Colby's equation. Conditions: Spinetoram alone, dose rate 0.0003125 weight %. An excerpt:
The method described in Colby S. R., “Calculating Synergistic and Antagonistic Responses of Herbicide Combinations,” Weeds, 1967, 15, 20-22 was used to determine an existence of synergic effect between the nAChR allosteric activator compound and the pesticide (I), (II), or any agriculturally acceptable salt thereof in the formulated pesticidal composition. In this method, the percent insect control of the formulated pesticidal composition as observed in the study was compared to the “expected” percent control (E) as calculated by equation (1) (hereinafter “Colby's equation”) below: [formula] where X is the percentage of control with the first pesticide at a given rate (p), Y is the percentage of control with the second pesticide at a given rate (q), and E is the expected control by the first and second pesticide at a rate of p+q. […] Bioassays were performed for different active compounds. Cabbage plants with about two to three new-growth-true leaf stage were treated with different active compounds using a track sprayer at a volume of 400 L/Ha. Three second instar diamondback moth, Plutella xylostella, were infested onto each leaf disc. […] The “Colby's Expected Action” was calculated using Colby's equation as discussed previously.

Experiment [4] concerns South American brown stink bug, Euschistus heros. As to the kind of experiment: Treated bean piece bioassay against South American brown stink bug, synergy by Colby's equation. Conditions: Spinetoram alone, dose rate 0.0000039 weight %. An excerpt: The method described in Colby S. R., “Calculating Synergistic and Antagonistic Responses of Herbicide Combinations,” Weeds, 1967, 15, 20-22 was used to determine an existence of synergic effect between the nAChR allosteric activator compound and the pesticide (I), (II), or any agriculturally acceptable salt thereof in the formulated pesticidal composition. In this method, the percent insect control of the formulated pesticidal composition as observed in the study was compared to the “expected” percent control (E) as calculated by equation (1) (hereinafter “Colby's equation”) below: [formula] where X is the percentage of control with the first pesticide at a given rate (p), Y is the percentage of control with the second pesticide at a given rate (q), and E is the expected control by the first and second pesticide at a rate of p+q. […] The percent control of the pesticidal composition against South American brown stink bug, Euschistus heros, was determined as the “Observed” action, and compared to those obtained by using about 0.04 weight % of compound I, and using about 0.0000039 weight % of spinetoram alone. The “Colby's Expected Action” was calculated using Colby's equation as discussed previously.

Consider `CCN(C(=O)CCSCCC(F)(F)F)c1cn(-c2cccnc2)nc1Cl` [Compound I, N-(3-chloro-1-(pyridin-3-yl)-1H-pyrazol-4-yl)-N-ethyl-3-((3,3,3-trifluoropropyl)thio)propanamide], for which the “% Control Three Days After Treatment” value in experiment [1] (Example 8A, Compound I alone, dose rate 0.04 weight %) is “no control”; in experiment [1] (Example 8B, Compound I alone, dose rate 0.04 weight %), 0%; in experiment [1] (Example 8B, Compound I alone, dose rate 0.04 weight %, listed as compound I) it was “no control”.
Turning to Spinetoram, the “% Control Three Days After Treatment” value in experiment [2] is on record as 2%; in experiment [3] it was 54.17%; in experiment [1] (Example 8A, Spinetoram alone, dose rate 0.00125 weight %) it was 0%; in experiment [1] (Example 8A, Spinetoram alone, dose rate 0.00125 weight %, listed as spinetoram), “no control”; in experiment [1] (Example 8B, Spinetoram alone, dose rate 0.005 weight %), 0%; in experiment [1] (Example 8B, Spinetoram alone, dose rate 0.005 weight %, listed as spinetoram), “no control”. In experiment [4], the “% Control Four Days After Treatment” value is 25%.
